Source: patent publication US11919901B2 (Syndax Pharmaceuticals, Inc., priority 2021, dated 2024)
Read-outs that look alike come from different tables or passages of the source.

What was measured:
[1] = biological target: hERG (Homo sapiens (Human), UniProt Q12809); assay: Patch clamp assay (hERG tail currents, whole-cell); assay type: cell-based; settings: hERG transfected HEK 293 cells; for hERG % Remaining 30 μM: 30 μM compound; for hERG % Remaining 10 μM: 10 μM compound
Protocol: The 35 mm culture dishes upon which cells were seeded at a density allowing single cells to be recorded were placed on the dish holder of the microscope and continuously perfused (at approximately 1 mL/min) with the bath solution described in section 4.6. All solutions applied to cells including the pipette solution were maintained at room temperature (19° C. to 30° C.). After formation of a Gigaohm seal between the patch electrodes and individual hERG stably transfected HEK 293 cells (pipette resistance range: 2.0 MΩ2 to 7.0 MΩ; seal resistance range: >1GΩ) the cell membrane across the pipette tip was ruptured to assure electrical access to the cell interior (whole-cell patch-configuration). In case the quality of the seal was poor, the process of seal formation was repeated with a different cell and a new pipette. As soon as a stable seal could be established, hERG outward tail currents were measured upon depolarization of the cell membrane to +20 mV for 2s (activation of channels) from a holding potential of −80 mV and upon subsequent repolarization to −40 mV for 3 s. This voltage protocol (as shown below) was run at least 10 times at intervals of 10 s. If current density was judged to be too low for measurement, another cell was recorded.
During wash-in of the test item the voltage protocol indicated above was run continuously again at 10 s intervals until the steady-state level of block was reached.
The IC50 was determined by fitting the dose response curve with a 2-parameter logistic function (amax=100%).

[2] = biological target: Menin-MLL (Homo sapiens (Human), UniProt O00255); assay: Determination of binding constants (Ki) to Menin-MLL (HTRF)
[3] = HTRF, 0.25 nM H-FL-Menin, 3.2 nM FITC-MLL-4-43, 24 hr incubation, read-out: Menin-MLL Ki HTRF Assay: Ki

Chain of Menin-MLL (O00255 whole entry): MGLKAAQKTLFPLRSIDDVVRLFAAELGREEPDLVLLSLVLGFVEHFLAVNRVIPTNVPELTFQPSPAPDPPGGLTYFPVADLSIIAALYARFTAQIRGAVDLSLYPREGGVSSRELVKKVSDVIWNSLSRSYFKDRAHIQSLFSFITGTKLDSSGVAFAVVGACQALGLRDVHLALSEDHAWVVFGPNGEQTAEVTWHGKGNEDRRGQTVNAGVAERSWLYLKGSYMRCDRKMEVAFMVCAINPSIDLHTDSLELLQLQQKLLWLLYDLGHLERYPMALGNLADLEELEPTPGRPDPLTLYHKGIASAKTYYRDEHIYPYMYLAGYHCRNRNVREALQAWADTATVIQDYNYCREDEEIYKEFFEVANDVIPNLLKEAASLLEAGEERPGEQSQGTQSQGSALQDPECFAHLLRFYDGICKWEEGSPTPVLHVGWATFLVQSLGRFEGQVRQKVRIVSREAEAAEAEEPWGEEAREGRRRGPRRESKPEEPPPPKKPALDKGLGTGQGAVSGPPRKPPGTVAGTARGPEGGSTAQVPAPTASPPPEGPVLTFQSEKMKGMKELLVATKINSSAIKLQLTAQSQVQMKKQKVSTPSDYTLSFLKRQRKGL
Chain of hERG (Q12809 whole entry): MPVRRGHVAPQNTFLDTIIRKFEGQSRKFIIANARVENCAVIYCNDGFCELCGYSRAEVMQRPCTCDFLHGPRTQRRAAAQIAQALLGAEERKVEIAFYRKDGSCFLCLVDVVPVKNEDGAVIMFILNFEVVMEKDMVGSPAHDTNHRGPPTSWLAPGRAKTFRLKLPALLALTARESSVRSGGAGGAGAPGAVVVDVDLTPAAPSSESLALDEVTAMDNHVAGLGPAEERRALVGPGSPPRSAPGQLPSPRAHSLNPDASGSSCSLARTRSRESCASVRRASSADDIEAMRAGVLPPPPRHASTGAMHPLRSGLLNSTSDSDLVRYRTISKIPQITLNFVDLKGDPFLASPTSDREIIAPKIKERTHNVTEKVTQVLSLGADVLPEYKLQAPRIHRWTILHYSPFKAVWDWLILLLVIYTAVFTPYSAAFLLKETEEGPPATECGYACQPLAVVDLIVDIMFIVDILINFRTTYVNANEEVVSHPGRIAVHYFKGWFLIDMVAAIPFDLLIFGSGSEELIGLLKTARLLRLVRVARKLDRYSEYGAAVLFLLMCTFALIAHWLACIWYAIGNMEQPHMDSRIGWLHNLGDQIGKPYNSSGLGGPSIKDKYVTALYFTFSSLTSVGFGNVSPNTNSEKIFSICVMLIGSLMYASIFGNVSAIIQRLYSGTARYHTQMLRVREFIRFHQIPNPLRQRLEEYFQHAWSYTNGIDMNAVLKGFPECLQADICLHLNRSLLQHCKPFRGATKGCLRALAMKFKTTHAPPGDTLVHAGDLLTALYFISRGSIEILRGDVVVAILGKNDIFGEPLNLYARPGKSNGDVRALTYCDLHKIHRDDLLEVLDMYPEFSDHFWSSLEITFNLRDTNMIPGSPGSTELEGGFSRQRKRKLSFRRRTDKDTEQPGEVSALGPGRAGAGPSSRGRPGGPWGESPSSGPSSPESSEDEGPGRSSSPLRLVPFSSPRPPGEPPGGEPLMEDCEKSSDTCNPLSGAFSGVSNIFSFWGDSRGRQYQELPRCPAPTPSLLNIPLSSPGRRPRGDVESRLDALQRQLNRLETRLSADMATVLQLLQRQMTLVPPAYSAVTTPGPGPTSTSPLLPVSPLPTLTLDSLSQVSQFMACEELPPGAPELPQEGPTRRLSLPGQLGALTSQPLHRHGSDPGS

| Structure (SMILES) | hERG % Remaining 30 μM [1] | Ki [2, 3] | hERG % Remaining 10 μM [1] | Ki [2] |
| --- | --- | --- | --- | --- |
| CC(C)N(CCC#N)C(=O)c1cc(F)ccc1Oc1cncnc1N1CC2(CCN(C[C@@H]3CC[C@@H](NS(=O)(=O)N(C)C)CO3)CC2)C1 [Compound 183, N-(2-Cyanoethyl)-2-((4-(7-(((2S,5R)-5-((N,N-dimethylsulfamoyl)amino)tetrahydro-2H-pyran-2-yl)methyl)-2,7-diazaspiro[3.5]nonan-2-yl)pyrimidin-5-yl)oxy)-5-fluoro-N-isopropylbenzamide] | +++ (“+++” means ≥66%) | < 1 nM |  |  |
| CC(C)N(CC(F)F)C(=O)c1cc(F)ccc1Oc1nncnc1N1CC2(CCN(C[C@@H]3CC[C@@H](NS(=O)(=O)N4CCC4)CO3)CC2)C1 [Compound 189, 2-((5-(7-(((2S,5R)-5-(Azetidine-1-sulfonamido)tetrahydro-2H-pyran-2-yl)methyl)-2,7-diazaspiro[3.5]nonan-2-yl)-1,2,4-triazin-6-yl)oxy)-N-(2,2-difluoroethyl)-5-fluoro-N-isopropylbenzamide] | +++ (“+++” means ≥66%) | < 1 nM |  |  |
| CC(C)N(C(=O)c1cc(F)ccc1Oc1nncnc1N1CC2(CCN(C[C@@H]3CC[C@@H](NS(=O)(=O)C4CC4)CO3)CC2)C1)C(C)C [Compound 196, 2-((5-(7-(((2S,5R)-5-(Cyclopropanesulfonamido)tetrahydro-2H-pyran-2-yl)methyl)-2,7-diazaspiro[3.5]nonan-2-yl)-1,2,4-triazin-6-yl)oxy)-5-fluoro-N,N-diisopropylbenzamide] | +++ (“+++” means ≥66%) | < 1 nM |  |  |
| CCNS(=O)(=O)N[C@@H]1CC[C@@H](CN2CCC3(CC2)CN(c2ncnnc2Oc2ccc(F)cc2C(=O)N(C(C)C)C(C)C)C3)OC1 [Compound 198] | +++ (“+++” means ≥66%) | < 1 nM |  |  |
| CC(C)N(C(=O)c1cc(F)ccc1Oc1nncnc1N1CC2(CCN(C[C@@H]3CC[C@@H](NS(=O)(=O)N4CCC4)CO3)CC2)C1)C(C)C [Compound 199, 2-((5-(7-(((2S,5R)-5-(Azetidine-1-sulfonamido)tetrahydro-2H-pyran-2-yl)methyl)-2,7-diazaspiro[3.5]nonan-2-yl)-1,2,4-triazin-6-yl)oxy)-5-fluoro-N,N-diisopropylbenzamide] | +++ (“+++” means ≥66%) | < 1 nM |  |  |
| CCN(C(=O)c1cc(F)ccc1Oc1cncnc1N1CC2(CCN(C[C@@H]3CC[C@@H](NS(=O)(=O)N4CCC[C@H]4C)CO3)CC2)C1)C(C)C [Compound 200, N-Ethyl-5-fluoro-N-isopropyl-2-((4-(7-(((2S,5R)-5-(((R)-2-methylpyrrolidine)-1-sulfonamido)tetrahydro-2H-pyran-2-yl)methyl)-2,7-diazaspiro[3.5]nonan-2-yl)pyrimidin-5-yl)oxy)benzamide] | + (“+” means <33%) | < 1 nM | ++ (“++” means ≥33% and <66%) |  |
| CCN(C(=O)c1cc(F)ccc1Oc1cncnc1N1CC2(CCN(C[C@@H]3CC[C@@H](NS(=O)(=O)N4CCC[C@@H]4C)CO3)CC2)C1)C(C)C [Compound 201, N-Ethyl-5-fluoro-N-isopropyl-2-((4-(7-(((2S,5R)-5-(((S)-2-methylpyrrolidine)-1-sulfonamido)tetrahydro-2H-pyran-2-yl)methyl)-2,7-diazaspiro[3.5]nonan-2-yl)pyrimidin-5-yl)oxy)benzamide] | + (“+” means <33%) | < 1 nM | + (“+” means <33%) |  |
| CC(C)N(C(=O)c1cc(F)ccc1Oc1cncnc1N1CC2(CCN(C[C@@H]3CC[C@@H](NS(=O)(=O)N4CCC[C@@H]4C)CO3)CC2)C1)C(C)C [Compound 202, 5-Fluoro-N,N-diisopropyl-2-((4-(7-(((2S,5R)-5-(((S)-2-methylpyrrolidine)-1-sulfonamido)tetrahydro-2H-pyran-2-yl)methyl)-2,7-diazaspiro[3.5]nonan-2-yl)pyrimidin-5-yl)oxy)benzamide] | + (“+” means <33%) | < 1 nM |  |  |
| CC(C)N(C(=O)c1cc(F)ccc1Oc1cncnc1N1CC2(CCN(C[C@@H]3CC[C@@H](NS(=O)(=O)N4CCC[C@H]4C)CO3)CC2)C1)C(C)C [Compound 203, 5-Fluoro-N,N-diisopropyl-2-((4-(7-(((2S,5R)-5-(((R)-2-methylpyrrolidine)-1-sulfonamido)tetrahydro-2H-pyran-2-yl)methyl)-2,7-diazaspiro[3.5]nonan-2-yl)pyrimidin-5-yl)oxy)benzamide] | + (“+” means <33%) | < 1 nM |  |  |
| C[C@@H]1COC[C@@H](C)N1C(=O)c1cc(F)ccc1Oc1cncnc1N1CC2(CCN(C[C@@H]3CC[C@@H](NS(=O)(=O)N4CCC[C@H]4C)CO3)CC2)C1 [Compound 208, (R)-N-((3R,6S)-6-((2-(5-(2-((3R,5R)-3,5-Dimethylmorpholine-4-carbonyl)-4-fluorophenoxy)pyrimidin-4-yl)-2,7-diazaspiro[3.5]nonan-7-yl)methyl)tetrahydro-2H-pyran-3-yl)-2-methylpyrrolidine-1-sulfonamide] | +++ (“+++” means ≥66%) | < 1 nM |  |  |
| C[C@@H]1COC[C@@H](C)N1C(=O)c1cc(F)ccc1Oc1cncnc1N1CC2(CCN(C[C@@H]3CC[C@@H](NS(=O)(=O)N4CCC[C@@H]4C)CO3)CC2)C1 [Compound 209, (S)-N-((3R,6S)-6-((2-(5-(2-((3R,5R)-3,5-Dimethylmorpholine-4-carbonyl)-4-fluorophenoxy)pyrimidin-4-yl)-2,7-diazaspiro[3.5]nonan-7-yl)methyl)tetrahydro-2H-pyran-3-yl)-2-methylpyrrolidine-1-sulfonamide] | +++ (“+++” means ≥66%) | < 1 nM |  |  |
| CO[C@H]1CCN(S(=O)(=O)N[C@@H]2CC[C@@H](CN3CCC4(CC3)CN(c3ncncc3Oc3ccc(F)cc3C(=O)N(C(C)C)C(C)C)C4)OC2)C1 [Compound 210, 5-Fluoro-N,N-diisopropyl-2-((4-(7-(((2S,5R)-5-(((S)-3-methoxypyrrolidine)-1-sulfonamido)tetrahydro-2H-pyran-2-yl)methyl)-2,7-diazaspiro[3.5]nonan-2-yl)pyrimidin-5-yl)oxy)benzamide] | +++ (“+++” means ≥66%) | < 1 nM |  |  |
| CO[C@@H]1CCN(S(=O)(=O)N[C@@H]2CC[C@@H](CN3CCC4(CC3)CN(c3ncncc3Oc3ccc(F)cc3C(=O)N(C(C)C)C(C)C)C4)OC2)C1 [Compound 211, 5-Fluoro-N,N-diisopropyl-2-((4-(7-(((2S,5R)-5-(((R)-3-methoxypyrrolidine)-1-sulfonamido)tetrahydro-2H-pyran-2-yl)methyl)-2,7-diazaspiro[3.5]nonan-2-yl)pyrimidin-5-yl)oxy)benzamide] | +++ (“+++” means ≥66%) | < 1 nM |  |  |
| CC(C)N(CC(F)F)C(=O)c1cc(F)ccc1Oc1cncnc1N1CC2(CCN(C[C@@H]3CC[C@@H](NS(=O)(=O)N(C)CCCO)CO3)CC2)C1 [Compound 214, N-(2,2-difluoroethyl)-5-fluoro-2-((4-(7-(((2S,5R)-5-((N-(3-hydroxypropyl)-N-methylsulfamoyl)amino)tetrahydro-2H-pyran-2-yl)methyl)-2,7-diazaspiro[3.5]nonan-2-yl)pyrimidin-5-yl)oxy)-N-isopropylbenzamide] | +++ (“+++” means ≥66%) | < 1 nM |  |  |
| CCN(C(=O)c1cc(F)ccc1Oc1cncnc1N1CC2(CCN(C[C@@H]3CC[C@@H](NS(=O)(=O)c4ccc(=O)[nH]c4C)CO3)CC2)C1)C(C)C [Compound 217, N-Ethyl-5-fluoro-N-isopropyl-2-((4-(7-(((2S,5R)-5-((2-methyl-6-oxo-1,6-dihydropyridine)-3-sulfonamido)tetrahydro-2H-pyran-2-yl)methyl)-2,7-diazaspiro[3.5]nonan-2-yl)pyrimidin-5-yl)oxy)benzamide] | +++ (“+++” means ≥66%) | < 1 nM |  |  |
| CCN(C(=O)c1cc(F)ccc1Oc1cncnc1N1CC2(CCN(C[C@@H]3CC[C@@H](NS(=O)(=O)c4c[nH]c(=O)c(C)c4)CO3)CC2)C1)C(C)C [Compound 218, N-Ethyl-5-fluoro-N-isopropyl-2-((4-(7-(((2S,5R)-5-((5-methyl-6-oxo-1,6-dihydropyridine)-3-sulfonamido)tetrahydro-2H-pyran-2-yl)methyl)-2,7-diazaspiro[3.5]nonan-2-yl)pyrimidin-5-yl)oxy)benzamide] | + (“+” means <33%) | < 1 nM |  |  |
| CC(C)N(C(=O)c1cc(F)ccc1Oc1cncnc1N1CC2(CCN(C[C@@H]3CC[C@@H](NS(=O)(=O)N4CC5(CCOC5)C4)CO3)CC2)C1)C(C)C [Compound 223, 2-((4-(7-(((2S,5R)-5-(6-Oxa-2-azaspiro[3.4]octane-2-sulfonamido)tetrahydro-2H-pyran-2-yl)methyl)-2,7-diazaspiro[3.5]nonan-2-yl)pyrimidin-5-yl)oxy)-5-fluoro-N,N-diisopropylbenzamide] | +++ (“+++” means ≥66%) | < 1 nM |  |  |
| CC(C)N(C(=O)c1cc(F)ccc1Oc1cncnc1N1CC2(CCN(C[C@@H]3CC[C@@H](NS(=O)(=O)N4CC5COCC5C4)CO3)CC2)C1)C(C)C (stereo partly drawn) [Compound 224, 5-Fluoro-2-((4-(7-(((2S,5R)-5-((hexahydro-1H-furo[3,4-c]pyrrole)-5-sulfonamido)tetrahydro-2H-pyran-2-yl)methyl)-2,7-diazaspiro[3.5]nonan-2-yl)pyrimidin-5-yl)oxy)-N,N-diisopropylbenzamide] | +++ (“+++” means ≥66%) | < 1 nM |  |  |
| CCS(=O)(=NC)N[C@@H]1CC[C@@H](CN2CCC3(CC2)CN(c2ncncc2Oc2ccc(F)cc2C(=O)N(C(C)C)C(C)C)C3)OC1 (stereo partly drawn) [Compound 231, 5-Fluoro-N,N-diisopropyl-2-((4-(7-(((2S,5R)-5-(N′-methylethylsulfonoamidimidamido)tetrahydro-2H-pyran-2-yl)methyl)-2,7-diazaspiro[3.5]nonan-2-yl)pyrimidin-5-yl)oxy)benzamide] | +++ (“+++” means ≥66%) |  |  | < 1 nM |
